Earlier results as cited in patent US6534088B2, “Fibrate-statin combinations with reduced fed-fasted effects” (SkyePharma Canada Inc., priority 2001, dated 2003).
Values belong to the compound of their own block, whether it stands above or below them.

Experiments:
[1] = not given; remark: listed apart in the source

solubility in water: insoluble in water
SMILES: CC[C@H](C)C(=O)O[C@H]1C[C@@H](C)C=C2C=C[C@H](C)[C@H](CC[C@@H]3C[C@@H](O)CC(=O)O3)[C@H]21 [Lovastatin]

solubility in methanol and water: > 300 mg/mL | partition coefficient (octanol/water) (pH of 7.0): 0.59
SMILES: CC[C@H](C)C(=O)O[C@H]1C[C@H](O)C=C2C=C[C@H](C)[C@H](CC[C@@H](O)C[C@@H](O)CC(=O)O)[C@H]21 [Pravastatin]

solubility in water: soluble in water | effect of food on absorption ([1]; oral administration): not sensitive to a food effect
SMILES: COCc1c(C(C)C)nc(C(C)C)c(/C=C/[C@@H](O)C[C@@H](O)CC(=O)O)c1-c1ccc(F)cc1 [Cerivastatin]

elimination half-life ([1]; metabolite in blood or plasma): approximately twenty
SMILES: CC(C)(Oc1ccc(C(=O)c2ccc(Cl)cc2)cc1)C(=O)O [fenofibric acid]

solubility in water: soluble in water | time to peak concentrations ([1]; oral administration): less than 1 hour
SMILES: CC(C)n1c(/C=C/C(O)CC(O)CC(=O)O)c(-c2ccc(F)cc2)c2ccccc21 (centres unmarked) [Fluvastatin]
